Measured values published in patent US4831053A, “Composition for prophylaxis and therapy of hepatitis” (Otsuka Pharmaceutical Co., Ltd., priority 1979, dated 1989).

Legend:
[1] = system: fulminant hepatitis (Schwarzman hepatitis); test: Schwarzman hepatitis (endotoxin-induced fulminant hepatitis): serum GOT and LDH levels, liver sections; format: in vivo, S.D. strain rats
Procedure: The test for evaluating the prophylactic and therapeutic effect of the compound represented by the formula (I) or (II) was conducted in accordance with the method of Mori et al., Kanzo, Vol. 17, pp. 580-589 (1976), using S.D. strain rats having a body weight of about 300 g as test animals, and causing fulminant hepatitis (Schwarzman hepatitis) to occur. More particularly, 4 test groups, each consisting of 5 S.D. strain rats, were administered 0.1 mg/body of endotoxin (LPS: E. coli 0.26: B6, a product of Difco Co.) peritoneally (by injection), and after 48 hours the same endotoxin preparation was administered by injection to each group at a dosage of 0.05, 0.2, 0.5 or 1.2 mg/body for boostering. On the other hand, 5 mg/body of the active ingredient of the agent of this invention was administered peritoneally by injection once a day for 6 days. This treatment was initiated 2 days before the first administration of endotoxin took place and ended on the day after the second administration of endotoxin for boostering. The test animals were victimized (i.e., destroyed and analyzed) 48 hours after the second administration of endotoxin, and the levels of GOT and LDH in the serum of the victimized rats were determined using a UV method described in American Journal of Clinical Pathology, Vol. 47, pp. 419-428 (1967) and Cancer Research, Vol. 14, pp. 513-515 (1954). In addition, degree of occurrence of hepatic necrosis and distribution of endotoxin in the liver were obseved microscopically using sections of liver of the victimized animals. The compound obtained in Synthesis Example 2 was used as the active ingredient. The same procedure was repeated on animals of 4 control groups which were not administered the active ingredient. The levels of GOT and of LDH in the serum determined for the group which received endotoxin boostering amount of 0.5 mg/body at the second administration and for the control group are shown in FIGS. 1 and 2, respectively. In FIGS. 1 and 2, the symbol o indicates the values obtained for each test animal in the group. Evaluation of the results was made based on the average value ± an error obtained by statistical treatment thereof. […] The sections of livers of the test animals of the same groups as above were observed using the fluorescence antibody method described in Journal of Experimental Medicine, Vol. 91, pp. 1-13 (1950).

[2] = Acute toxicity (intravenous); conditions: in vivo, rat
Procedure: The acute toxicity of the compound obtained in Synthesis Example 2 was determined by administering it intravenously to rat. The LD50 value obtained was 500 mg/kg.

[3] = Tautomer equilibrium in solution (NMR); format: physicochemical; conditions: methanol or pyridine as solvent
Procedure: Integration of the areas under the peak signals indicates a proportion of the former to the latter of about 73:27. After 2 hours the peak at 9.89 ppm increase further to an extent that the integrated proportions become about 70:30, and this proportion remains unchanged according to NMR analysis even after 63 hours. From this it follows that the compound represented by formula (I) and that represented by formula (II) are present in a molar proportion of about 7:3 in the solution. However, when methanol or pyridine is used as a solvent, the compound of formula (II) is not formed.

chronic hepatitis = test: Clinical data: patient with chronic hepatitis, GOT, GPT and serum bilirubin before and after administration; format: in vivo; conditions: human, oral, about 500 mg twice a day
Procedure: This treatment was continued for 2 months.
The levels of glutamic oxalacetic transaminase (GOT), glutamic pyruvic transaminase (GPT) and serum bilirubin (SB) were determined according to the conventional methods described in Am. J. Clin. Path., 28, 56-63 (1957) (for GOT and GPT) and in J. Biol. Chem., 119, 481-490 (1937) (for SB), and compared with the data obtained before the administration, as shown in Table below.

complement = test: Anti-complement activity
Procedure: A 30-liter jar fermentor was charged with 20 liters of a culture medium of the above formulation, and one flask of the resulting seed culture was cultivated in the culture medium at 28° C. for 5 days with stirring at 300 rpm at an aeration rate of 1 liter per liter of the culture medium per minute. The resulting culture broth was centrifuged at a speed of 8,000 rpm to remove the microbial cells. To the supernatant liquid was added 5 liters of methanol, and the mixture was stirred and then allowed to stand for 3 hours. The mixture was centrifuged and the solid material was removed. The supernatant was extracted with an equal quantity, by volume, of ethyl acetate. The solvent of the ethyl acetate layer was distilled off under reduced pressure. The residue was dissolved in methanol, and passed through a column of activated carbon. The eluate was concentrated to dryness under reduced pressure. The dried mass was dissolved in a mixture of chloroform and ethyl acetate (1:1, v/v) and gel-filtered through a column of Sephadex LH-20. […] The compound had the following physicochemical characteristics.

[4] = microscopic observation of liver sections (×100), FIG. 3b
[5] = rat, 5 mg/body i.p. once a day for 6 days, endotoxin booster 0.5 mg/body, vs control group

SMILES: CC1CCC2C(C)(C)C(O)C(O)CC2(C)C12Cc1c(O)cc3c(c1O2)C(O)OC3=O (stereo not shown) [Synthesis Example 2, 4,8-dihydroxy-6-oxo-2,3,6,8-tetrahydro-furo[3,4-g]benzofuran-2-spiro-1'-(6',7'-dihydroxy-2',5',5',8'a-tetramethyl-1',2',3',4',4'a,5',6',7',8',8'a-decahydronaphthalene)]
- distribution of endotoxin in the liver ([1]; fluorescence antibody method, liver sections, FIG. 4b): strongly localized in Kupffer cells but scarcely outside the cells
- degree of cell degeneration of liver cells [1, 4]: very slight
- occurrence of damage of cells of liver [1, 4]: significantly inhibited or such damage was substantially cured
- level of GOT in the serum [1, 5]: significantly lower than those of the control group
- level of LDH in the serum [1, 5]: significantly lower than those of the control group
- occurrence of fulminant hepatitis (Schwarzman hepatitis) ([1]; rat, 5 mg/body i.p. once a day for 6 days, from GOT and LDH levels): significantly inhibits the occurrence of fulminant hepatitis
- LD50 [2]: 500 mg/kg
- formation of compound of formula (II) in solution [3]: not formed

SMILES: CC1CCC2C(C)(C)C(O)C(O)CC2(C)C12Cc1c(O)cc(C(=O)O)c(C=O)c1O2 (stereo not shown) [Synthesis Example 3, disodium 6,7-dihydroxy-2,5,5,8a-tetramethyl-1,2,3,4,4a,5,6,7,8,8a-decahydronaphthalene-1-spiro-2'-(6'-carboxylate-7'-formyl-4'-oxide-2',3'-dihydrobenzofuran)]
- feeling with respect to fatigue and loss of strength (chronic hepatitis; 2 months, described by patient): considerably improved feeling
- SB (serum bilirubin) (chronic hepatitis; after administration (2 months), before: 2.6): 1.5 mg/dL
- GPT (chronic hepatitis; after administration (2 months), before: 143): 67 unit
- GOT (chronic hepatitis; after administration (2 months), before: 180): 45 unit

SMILES: CC1CCC2C(C)(C)C(O)C(O)CC2(C)C12Cc1c(O)cc(C=O)c(C=O)c1O2 (stereo not shown) [Synthesis Example 1, 6,7-dihydroxy-2,5,5,8a-tetramethyl-1,2,3,4,4a,5,6,7,8,8a-decahydronaphthalene-1-spiro-2'-(6',7'-diformyl-4'-hydroxy-2',3'-dihydrobenzofuran)]
- anti-complement activity (complement): having an anti-complement activity
